Measurements: patent publication US20240158446A1, “CYCLIC COMPOUND HAVING SELECTIVE INHIBITORY ACTION ON KRAS OVER HRAS AND NRAS” (CHUGAI SEIYAKU KABUSHIKI KAISHA, priority 2021, published 2024)
*1 amine or outer side, *2 acyl side, *3 side chain or, on linkers, in order; H or OH if unused. Where a SMILES comes first, the peptide text is derived from it. Bridges are numbered along the chain shown (N, C = ends). [ ]: non-standard residue; d: D form. The star is where a group is joined. hPhe(3-Cl-4-CF3) = N[C@@H](CCc1ccc(C(F)(F)F)c(Cl)c1)C(=O)O; X36 = Cc1ccc(C[C@@H](C(=O)[*:2])N(CCC(F)(F)F)[*:1])cc1; X41 = Cc1ccc(C[C@@H](C(=O)[*:2])N(CC2CCCCC2)[*:1])cc1; X20 = Cc1ccc(C[C@@H](C(=O)[*:2])N(CC2CCCC2)[*:1])cc1; X15 = Cc1ccc(C[C@@H](C(=O)[*:2])N(CCC(C)C)[*:1])cc1; X42 = Cc1ccc(C[C@@H](C(=O)[*:2])N(CC2CCC2)[*:1])cc1; X28 = COCCCN([C@@H](Cc1ccc(C)cc1)C(=O)[*:2])[*:1]; X30 = C=CCCN([C@@H](Cc1ccc(C)cc1)C(=O)[*:2])[*:1]; X10 = C=CCN([C@@H](Cc1ccc(C)cc1)C(=O)[*:2])[*:1]; X35 = COCCN([C@@H](Cc1ccc(C)cc1)C(=O)[*:2])[*:1]; NMeGly(cPent) = CN[C@H](C(=O)O)C1CCCC1; NMeD = CN[C@@H](CC(=O)O)C(=O)O; NMeL = CN[C@@H](CC(C)C)C(=O)O; Morpholide = C1CN(*)CCO1; NMeA = CN[C@@H](C)C(=O)O; Ac5c = NC1(C(=O)O)CCCC1; Aze = O=C(O)[C@@H]1CCN1; Sar = CNCC(=O)O

How the values were obtained:
[1] = biological target: GDP-bound KRAS wild-type protein (Homo sapiens, UniProt P01116); test: Binding to KRAS by surface plasmon resonance (SPR), Single Cycle Kinetics; conditions: SPR Single Cycle Kinetics, GDP-bound KRAS wild-type protein, 1:1 binding model; read-out: KRAS KD
Chain of GDP-bound KRAS wild-type protein (P01116 whole entry): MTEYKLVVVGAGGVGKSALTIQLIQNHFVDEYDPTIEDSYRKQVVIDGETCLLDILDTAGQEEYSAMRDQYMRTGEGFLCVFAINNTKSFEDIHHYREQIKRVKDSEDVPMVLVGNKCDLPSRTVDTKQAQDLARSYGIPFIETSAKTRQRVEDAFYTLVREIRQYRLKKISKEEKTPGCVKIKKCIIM

[2] = biological target: GDP-bound NRAS wild-type protein (Homo sapiens, UniProt P01111); test: Binding to NRAS by surface plasmon resonance (SPR), Single Cycle Kinetics; conditions: SPR, GDP-bound NRAS wild-type protein vs GDP-bound KRAS wild-type protein
Chain of GDP-bound NRAS wild-type protein (P01111 whole entry): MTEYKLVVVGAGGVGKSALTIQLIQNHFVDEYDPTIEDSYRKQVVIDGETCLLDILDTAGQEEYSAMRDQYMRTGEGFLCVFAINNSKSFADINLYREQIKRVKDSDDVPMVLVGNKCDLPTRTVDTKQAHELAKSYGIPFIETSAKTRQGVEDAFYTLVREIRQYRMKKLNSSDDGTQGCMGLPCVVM

[3] = biological target: GDP-bound HRAS wild-type protein (Homo sapiens, UniProt P01112); test: Binding to HRAS by surface plasmon resonance (SPR), Single Cycle Kinetics; conditions: SPR, GDP-bound HRAS wild-type protein vs GDP-bound KRAS wild-type protein
Chain of GDP-bound HRAS wild-type protein (P01112 whole entry): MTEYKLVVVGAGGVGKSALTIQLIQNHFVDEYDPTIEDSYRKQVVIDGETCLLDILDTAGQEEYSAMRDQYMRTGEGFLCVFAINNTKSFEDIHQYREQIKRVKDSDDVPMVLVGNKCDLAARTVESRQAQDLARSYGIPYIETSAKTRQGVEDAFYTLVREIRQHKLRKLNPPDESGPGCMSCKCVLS

Kd [1] [nM]	SMILES	NRAS/KRAS (ratio of KD value for NRAS to KD value for KRAS) [2]	HRAS/KRAS (ratio of KD value for HRAS to KD value for KRAS) [3]
8.4	CC[C@H](C)[C@@H]1NC(=O)[C@H](CC(C)C)N(C)C(=O)C[C@@H](C(=O)N2CCOCC2)N(C)C(=O)[C@H](C2CCCC2)N(C)C(=O)C2(CCCC2)NC(=O)[C@@H]2CCCN2C(=O)[C@H](CCc2ccc(C(F)(F)F)c(Cl)c2)NC(=O)CN(C)C(=O)[C@H](Cc2ccc(C)cc2)N(CC2CCCCC2)C(=O)[C@@H]2CCN2C(=O)[C@H](C)N(C)C1=O [PP0085] ([NMeL]I[NMeA][Aze][X41][Sar][hPhe(3-Cl-4-CF3)]P[Ac5c][NMeGly(cPent)][NMeD]-Morpholide; lactam N-11)	C (A compound having a KD ratio of 0.1 or more and less than 3 is denoted as C)	C (A compound having a KD ratio of 0.1 or more and less than 3 is denoted as C)
0.26	CC[C@H](C)[C@@H]1NC(=O)[C@H](CC(C)C)N(C)C(=O)C[C@@H](C(=O)N2CCOCC2)N(C)C(=O)[C@H](C2CCCC2)N(C)C(=O)C2(CCCC2)NC(=O)[C@@H]2CCCN2C(=O)[C@H](CCc2ccc(C(F)(F)F)c(Cl)c2)NC(=O)CN(C)C(=O)[C@H](Cc2ccc(C)cc2)N(CCC(C)C)C(=O)[C@@H]2CCN2C(=O)[C@H](C)N(C)C1=O [PP0086] ([NMeL]I[NMeA][Aze][X15][Sar][hPhe(3-Cl-4-CF3)]P[Ac5c][NMeGly(cPent)][NMeD]-Morpholide; lactam N-11)	C (A compound having a KD ratio of 0.1 or more and less than 3 is denoted as C)	B (a compound having 3 or more and less than 10 is denoted as B)
0.17	C=CCCN1C(=O)[C@@H]2CCN2C(=O)[C@H](C)N(C)C(=O)[C@H]([C@@H](C)CC)NC(=O)[C@H](CC(C)C)N(C)C(=O)C[C@@H](C(=O)N2CCOCC2)N(C)C(=O)[C@H](C2CCCC2)N(C)C(=O)C2(CCCC2)NC(=O)[C@@H]2CCCN2C(=O)[C@H](CCc2ccc(C(F)(F)F)c(Cl)c2)NC(=O)CN(C)C(=O)[C@@H]1Cc1ccc(C)cc1 [PP0089] ([NMeL]I[NMeA][Aze][X30][Sar][hPhe(3-Cl-4-CF3)]P[Ac5c][NMeGly(cPent)][NMeD]-Morpholide; lactam N-11)	C (A compound having a KD ratio of 0.1 or more and less than 3 is denoted as C)	B (a compound having 3 or more and less than 10 is denoted as B)
0.23	CC[C@H](C)[C@@H]1NC(=O)[C@H](CC(C)C)N(C)C(=O)C[C@@H](C(=O)N2CCOCC2)N(C)C(=O)[C@H](C2CCCC2)N(C)C(=O)C2(CCCC2)NC(=O)[C@@H]2CCCN2C(=O)[C@H](CCc2ccc(C(F)(F)F)c(Cl)c2)NC(=O)CN(C)C(=O)[C@H](Cc2ccc(C)cc2)N(CCC(F)(F)F)C(=O)[C@@H]2CCN2C(=O)[C@H](C)N(C)C1=O [PP0091] ([NMeL]I[NMeA][Aze][X36][Sar][hPhe(3-Cl-4-CF3)]P[Ac5c][NMeGly(cPent)][NMeD]-Morpholide; lactam N-11)	C (A compound having a KD ratio of 0.1 or more and less than 3 is denoted as C)	B (a compound having 3 or more and less than 10 is denoted as B)
0.15	CC[C@H](C)[C@@H]1NC(=O)[C@H](CC(C)C)N(C)C(=O)C[C@@H](C(=O)N2CCOCC2)N(C)C(=O)[C@H](C2CCCC2)N(C)C(=O)C2(CCCC2)NC(=O)[C@@H]2CCCN2C(=O)[C@H](CCc2ccc(C(F)(F)F)c(Cl)c2)NC(=O)CN(C)C(=O)[C@H](Cc2ccc(C)cc2)N(CCOC)C(=O)[C@@H]2CCN2C(=O)[C@H](C)N(C)C1=O [PP0092] ([NMeL]I[NMeA][Aze][X35][Sar][hPhe(3-Cl-4-CF3)]P[Ac5c][NMeGly(cPent)][NMeD]-Morpholide; lactam N-11)	C (A compound having a KD ratio of 0.1 or more and less than 3 is denoted as C)	C (A compound having a KD ratio of 0.1 or more and less than 3 is denoted as C)
0.076	CC[C@H](C)[C@@H]1NC(=O)[C@H](CC(C)C)N(C)C(=O)C[C@@H](C(=O)N2CCOCC2)N(C)C(=O)[C@H](C2CCCC2)N(C)C(=O)C2(CCCC2)NC(=O)[C@@H]2CCCN2C(=O)[C@H](CCc2ccc(C(F)(F)F)c(Cl)c2)NC(=O)CN(C)C(=O)[C@H](Cc2ccc(C)cc2)N(CCCOC)C(=O)[C@@H]2CCN2C(=O)[C@H](C)N(C)C1=O [PP0093] ([NMeL]I[NMeA][Aze][X28][Sar][hPhe(3-Cl-4-CF3)]P[Ac5c][NMeGly(cPent)][NMeD]-Morpholide; lactam N-11)	C (A compound having a KD ratio of 0.1 or more and less than 3 is denoted as C)	B (a compound having 3 or more and less than 10 is denoted as B)
0.79	CC[C@H](C)[C@@H]1NC(=O)[C@H](CC(C)C)N(C)C(=O)C[C@@H](C(=O)N2CCOCC2)N(C)C(=O)[C@H](C2CCCC2)N(C)C(=O)C2(CCCC2)NC(=O)[C@@H]2CCCN2C(=O)[C@H](CCc2ccc(C(F)(F)F)c(Cl)c2)NC(=O)CN(C)C(=O)[C@H](Cc2ccc(C)cc2)N(CC2CCC2)C(=O)CN(C)C(=O)CN(C)C1=O [PP0095] ([NMeL]I[Sar][Sar][X42][Sar][hPhe(3-Cl-4-CF3)]P[Ac5c][NMeGly(cPent)][NMeD]-Morpholide; lactam N-11)	C (A compound having a KD ratio of 0.1 or more and less than 3 is denoted as C)	C (A compound having a KD ratio of 0.1 or more and less than 3 is denoted as C)
2.8	CC[C@H](C)[C@@H]1NC(=O)[C@H](CC(C)C)N(C)C(=O)C[C@@H](C(=O)N2CCOCC2)N(C)C(=O)[C@H](C2CCCC2)N(C)C(=O)C2(CCCC2)NC(=O)[C@@H]2CCCN2C(=O)[C@H](CCc2ccc(C(F)(F)F)c(Cl)c2)NC(=O)CN(C)C(=O)[C@H](Cc2ccc(C)cc2)N(CC2CCCC2)C(=O)CN(C)C(=O)CN(C)C1=O [PP0096] ([NMeL]I[Sar][Sar][X20][Sar][hPhe(3-Cl-4-CF3)]P[Ac5c][NMeGly(cPent)][NMeD]-Morpholide; lactam N-11)	C (A compound having a KD ratio of 0.1 or more and less than 3 is denoted as C)	C (A compound having a KD ratio of 0.1 or more and less than 3 is denoted as C)
9.3	CC[C@H](C)[C@@H]1NC(=O)[C@H](CC(C)C)N(C)C(=O)C[C@@H](C(=O)N2CCOCC2)N(C)C(=O)[C@H](C2CCCC2)N(C)C(=O)C2(CCCC2)NC(=O)[C@@H]2CCCN2C(=O)[C@H](CCc2ccc(C(F)(F)F)c(Cl)c2)NC(=O)CN(C)C(=O)[C@H](Cc2ccc(C)cc2)N(CC2CCCCC2)C(=O)CN(C)C(=O)CN(C)C1=O [PP0097] ([NMeL]I[Sar][Sar][X41][Sar][hPhe(3-Cl-4-CF3)]P[Ac5c][NMeGly(cPent)][NMeD]-Morpholide; lactam N-11)	C (A compound having a KD ratio of 0.1 or more and less than 3 is denoted as C)	C (A compound having a KD ratio of 0.1 or more and less than 3 is denoted as C)
0.19	C=CCN1C(=O)CN(C)C(=O)CN(C)C(=O)[C@H]([C@@H](C)CC)NC(=O)[C@H](CC(C)C)N(C)C(=O)C[C@@H](C(=O)N2CCOCC2)N(C)C(=O)[C@H](C2CCCC2)N(C)C(=O)C2(CCCC2)NC(=O)[C@@H]2CCCN2C(=O)[C@H](CCc2ccc(C(F)(F)F)c(Cl)c2)NC(=O)CN(C)C(=O)[C@@H]1Cc1ccc(C)cc1 [PP0100] ([NMeL]I[Sar][Sar][X10][Sar][hPhe(3-Cl-4-CF3)]P[Ac5c][NMeGly(cPent)][NMeD]-Morpholide; lactam N-11)	B (a compound having 3 or more and less than 10 is denoted as B)	C (A compound having a KD ratio of 0.1 or more and less than 3 is denoted as C)
0.16	C=CCCN1C(=O)CN(C)C(=O)CN(C)C(=O)[C@H]([C@@H](C)CC)NC(=O)[C@H](CC(C)C)N(C)C(=O)C[C@@H](C(=O)N2CCOCC2)N(C)C(=O)[C@H](C2CCCC2)N(C)C(=O)C2(CCCC2)NC(=O)[C@@H]2CCCN2C(=O)[C@H](CCc2ccc(C(F)(F)F)c(Cl)c2)NC(=O)CN(C)C(=O)[C@@H]1Cc1ccc(C)cc1 [PP0101] ([NMeL]I[Sar][Sar][X30][Sar][hPhe(3-Cl-4-CF3)]P[Ac5c][NMeGly(cPent)][NMeD]-Morpholide; lactam N-11)	B (a compound having 3 or more and less than 10 is denoted as B)	C (A compound having a KD ratio of 0.1 or more and less than 3 is denoted as C)
0.15	CC[C@H](C)[C@@H]1NC(=O)[C@H](CC(C)C)N(C)C(=O)C[C@@H](C(=O)N2CCOCC2)N(C)C(=O)[C@H](C2CCCC2)N(C)C(=O)C2(CCCC2)NC(=O)[C@@H]2CCCN2C(=O)[C@H](CCc2ccc(C(F)(F)F)c(Cl)c2)NC(=O)CN(C)C(=O)[C@H](Cc2ccc(C)cc2)N(CCC(F)(F)F)C(=O)CN(C)C(=O)CN(C)C1=O [PP0103] ([NMeL]I[Sar][Sar][X36][Sar][hPhe(3-Cl-4-CF3)]P[Ac5c][NMeGly(cPent)][NMeD]-Morpholide; lactam N-11)	B (a compound having 3 or more and less than 10 is denoted as B)	C (A compound having a KD ratio of 0.1 or more and less than 3 is denoted as C)
